Each molecule was assayed against PIK3CA (human) (UniProt P42336) (assay: Inhibition of PIK3CA Kinase Activity).
Sequence of PIK3CA (human) (P42336 whole entry, looked up): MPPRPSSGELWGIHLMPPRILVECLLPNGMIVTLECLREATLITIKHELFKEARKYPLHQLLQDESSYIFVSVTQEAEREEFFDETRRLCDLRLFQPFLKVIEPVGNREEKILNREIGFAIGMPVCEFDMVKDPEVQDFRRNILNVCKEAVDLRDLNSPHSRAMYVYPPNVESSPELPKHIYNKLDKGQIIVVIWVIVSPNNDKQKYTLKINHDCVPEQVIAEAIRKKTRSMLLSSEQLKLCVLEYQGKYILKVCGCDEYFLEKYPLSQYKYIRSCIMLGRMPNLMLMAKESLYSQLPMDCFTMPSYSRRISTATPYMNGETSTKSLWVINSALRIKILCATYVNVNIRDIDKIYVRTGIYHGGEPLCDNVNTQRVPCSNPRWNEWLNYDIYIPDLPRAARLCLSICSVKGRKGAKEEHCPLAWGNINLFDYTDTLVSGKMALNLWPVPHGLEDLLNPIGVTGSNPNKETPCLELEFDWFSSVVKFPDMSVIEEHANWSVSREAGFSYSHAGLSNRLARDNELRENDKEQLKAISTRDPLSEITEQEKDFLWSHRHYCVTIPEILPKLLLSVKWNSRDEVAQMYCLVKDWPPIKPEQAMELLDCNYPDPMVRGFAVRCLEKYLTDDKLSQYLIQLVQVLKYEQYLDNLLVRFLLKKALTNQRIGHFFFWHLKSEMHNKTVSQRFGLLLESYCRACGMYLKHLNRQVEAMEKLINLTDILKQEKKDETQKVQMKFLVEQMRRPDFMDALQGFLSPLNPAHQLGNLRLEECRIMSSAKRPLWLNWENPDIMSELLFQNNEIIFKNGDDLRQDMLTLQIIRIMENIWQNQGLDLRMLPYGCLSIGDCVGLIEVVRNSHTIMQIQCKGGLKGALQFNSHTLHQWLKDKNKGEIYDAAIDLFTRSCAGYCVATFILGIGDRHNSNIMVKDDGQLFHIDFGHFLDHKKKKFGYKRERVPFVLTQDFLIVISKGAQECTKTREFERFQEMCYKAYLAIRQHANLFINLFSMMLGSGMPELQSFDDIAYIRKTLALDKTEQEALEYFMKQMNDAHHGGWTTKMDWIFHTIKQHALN

IC50, 50 to 250 nM:
Cc1nc2ccc(-c3ccc4c(c3)CN(c3ncnc5ccc(I)cc35)CCO4)cc2[nH]1
Cc1nc2ccc(-c3ccc4c(c3)CN(c3ncnc5cc(F)c(F)cc35)CCO4)cc2[nH]1
Cc1nc2ncc(-c3ccc4c(c3)CN(c3nc(CN(C)C5CC5)nc5c3CC(C)(C)CC5)CCO4)cc2[nH]1
CCNc1nc2ccc(-c3ccc4c(c3)CN(c3nc(NC)nc5ccccc35)CCO4)cc2[nH]1
Nc1ccc(-c2ccc3c(c2)CN(c2ccnc4ccccc24)CCO3)cn1
COc1c(OCC(C)C)ccc2c(N3CCOc4ccc(-c5ccc6nc(C)[nH]c6c5)cc4C3)ncnc12
CCN(C)S(=O)(=O)c1cc(-c2ccc3c(c2)CN(c2ncnc4c2CC(C)(C)CC4)CCO3)cnc1N
CC1(C)CCc2ncnc(N3CCOc4ccc(-c5cnc(O)c(S(=O)(=O)N6CC[C@H](N)C6)c5)cc4C3)c2C1
CN1CC[C@H](CNS(=O)(=O)c2cc(-c3ccc4c(c3)CN(c3ncnc5c3CC(C)(C)CC5)CCO4)cnc2N)C1
CC1(C)CCc2ncnc(N3CCOc4ccc(-c5cnc(N)c(NS(C)(=O)=O)c5)cc4C3)c2C1
CNC(=O)Nc1ccc(-c2ccc3c(c2)CN(c2nc(C)nc4cc(OC)ccc24)CCO3)cc1
CN(C)Cc1nc2c(c(N3CCOc4ccc(-c5ccc(N)nc5)cc4C3)n1)CC(C)(C)CC2
CCCc1nc2ccc(-c3ccc4c(c3)CN(c3ccnc5ccccc35)CCO4)cc2[nH]1
CCCc1nc2cc(-c3ccc4c(c3)CN(c3ncnc5c3CC(C)(C)CC5)CCO4)cnc2[nH]1
Cc1nc2ncc(-c3ccc4c(c3)CN(c3ncnc5c3CC[C@@H](C)C5)CCO4)cc2[nH]1
COc1cc2ncnc(N3CCOc4ccc(-c5ccc6nc(C)[nH]c6c5)cc4C3)c2cc1OC
Cc1nc2ccc(-c3ccc4c(c3)CN(c3ncnc5ccc(Br)cc35)CCO4)cc2[nH]1
Cc1nc2ncc(-c3ccc4c(c3)CN(c3ncnc5c3C[C@H](C)[C@@H](C)C5)CCO4)cc2[nH]1
CC1(C)CCc2ncnc(N3CCOc4ccc(-c5cnc(N)c(S(=O)(=O)NCC6(N)CC6)c5)cc4C3)c2C1
CNCc1nc2ncc(-c3ccc4c(c3)CN(c3ncnc5c3CC(C)(C)CC5)CCO4)cc2[nH]1
CCOC(=O)c1nc(N2CCOc3ccc(-c4ccc5nc(C)[nH]c5c4)cc3C2)c2ccccc2n1
Cc1nc2ccc(-c3ccc4c(c3)CN(c3ncnc(C)c3Cc3cccc(C(F)(F)F)c3)CCO4)cc2[nH]1
CC[C@H]1CCc2c(ncnc2N2CCOc3ccc(-c4cnc5nc([C@@H](C)N)[nH]c5c4)cc3C2)C1
C=Cc1nc2c(c(N3CCOc4ccc(-c5cnc6[nH]c(C)nc6c5)cc4C3)n1)CC(C)(C)CC2
Cc1nc2ccc(-c3ccc4c(c3)CN(c3ncnc5c(C#N)c6n(c35)CCCC6)CCO4)cc2[nH]1
CC1(C)CCc2ncnc(N3CCOc4ccc(-c5cnc(N)c(S(=O)(=O)NC[C@H]6CCCN6)c5)cc4C3)c2C1
COCCOc1ccc(-c2ccc3c(c2)CN(c2nc(CN(C)C)nc4c2CC(C)(C)CC4)CCO3)cc1OC

IC50, ≤ 10 nM:
CN(C)Cc1nc2c(c(N3CCOc4ccc(-c5cnc6nc(C7CC7)[nH]c6c5)cc4C3)n1)CC(C)(C)CC2
CC[C@H]1CCc2c(nc(C)nc2N2CCOc3ccc(-c4cnc5nc(NC(=O)OC)[nH]c5c4)cc3C2)C1
Cc1ccc2ncnc(N3CCOc4ccc(-c5cnc6nc(N)[nH]c6c5)cc4C3)c2c1
COc1ccc2ncnc(N3CCOc4ccc(-c5cnc6nc(N)[nH]c6c5)cc4C3)c2c1
CCN(C)Cc1nc2c(c(N3CCOc4ccc(-c5cnc6nc(C)[nH]c6c5)cc4C3)n1)CC(C)(C)CC2
Cc1nc2cc(-c3ccc4c(c3)CN(c3nc([C@H]5CCCN5)nc5c3CC(C)(C)CC5)CCO4)cnc2[nH]1
COC(=O)Nc1nc2ncc(-c3ccc4c(c3)CN(c3ncnc5c3CC(C)(C)CC5)CCO4)cc2[nH]1
COc1ccc2c(N3CCOc4ccc(-c5cnc(N)s5)cc4C3)nc(C)nc2c1
Cc1ncnc(N2CCOc3ccc(-c4cnc5sc(N)nc5c4)cc3C2)c1Cc1ccc(F)cc1
CN(CCO)S(=O)(=O)c1cc(-c2ccc3c(c2)CN(c2ncnc4c2CC(C)(C)CC4)CCO3)cnc1N
CC1(C)CCc2ncnc(N3CCOc4ccc(-c5cnc(N)c(S(=O)(=O)NCCCN)c5)cc4C3)c2C1
COc1ccc2c(N3CCOc4ccc(-c5cnc6sc(N)nc6c5)cc4C3)nc(CN(C)C)nc2c1
Cc1nc(CN(C)C)nc(N2CCOc3ccc(-c4cnc5sc(N)nc5c4)cc3C2)c1C

IC50, 10 to 50 nM:
CC1(C)CCc2ncnc(N3CCOc4ccc(-c5cnc(N)c(S(C)(=O)=O)c5)cc4C3)c2C1
C=C[C@H]1CCCc2c(ncnc2N2CCOc3ccc(-c4cnc5nc(C)[nH]c5c4)cc3C2)C1
CC1(C)CCc2ncnc(N3CCOc4ccc(-c5cnc(N)c(S(=O)(=O)N6CCC6)c5)cc4C3)c2C1
Cc1nc2ccc(-c3ccc4c(c3)CN(c3nc(CNC5CC5)nc(C)c3Cc3ccc(F)cc3)CCO4)cc2[nH]1
Cc1nc2ccc(-c3ccc4c(c3)CN(c3ncnc5ccc(OCC#N)cc35)CCO4)cc2[nH]1
CC1(C)CCc2ncnc(N3CCOc4ccc(-c5cnc(N)c(S(=O)(=O)N6CC[C@H](N)C6)c5)cc4C3)c2C1
Cc1nc(CN(C)C)nc(N2CCOc3ccc(-c4cnc5sc(N)nc5c4)cc3C2)c1Cl
CCNc1nc2ccc(-c3ccc4c(c3)CN(c3ccnc5ccc(OC)cc35)CCO4)cc2[nH]1
CC1(C)CCc2ncnc(N3CCOc4ccc(-c5ccc6[nH]c(C(F)F)nc6c5)cc4C3)c2C1
CC1(C)CCc2ncnc(N3CCOc4ccc(-c5cnc(N)c(S(=O)(=O)N6CCC(O)C6)c5)cc4C3)c2C1 (stereo unspecified)
Cc1nc(N2CCOc3ccc(-c4ccc(-c5ncc[nH]5)cc4)cc3C2)c2ccccc2n1
Cc1ccc2ncnc(N3CCOc4ccc(-c5ccc6nc(C)[nH]c6c5)cc4C3)c2c1
CCNc1nc2ccc(-c3ccc4c(c3)CN(c3ncnc(Nc5ccc(OC)cc5)c3C)CCO4)cc2[nH]1
Cc1nc2ccc(-c3ccc4c(c3)CN(c3nc(CN5CC[C@@H](F)C5)nc5c3CC(C)(C)CC5)CCO4)cc2[nH]1
Cc1nc2c(c(N3CCOc4ccc(-c5cnc6nc(C)[nH]c6c5)cc4C3)n1)CC(C)(C)CC2
CC1(C)CCc2ncnc(N3CCOc4ccc(-c5ccc(-c6ncc[nH]6)cc5)cc4C3)c2C1
Cc1nc2ncc(-c3ccc4c(c3)CN(c3nc(CNC(C)(C)C)nc5c3CC(C)(C)CC5)CCO4)cc2[nH]1
Cc1nc2ncc(-c3ccc4c(c3)CN(c3nc(CNCC(F)F)nc5c3CC(C)(C)CC5)CCO4)cc2[nH]1
CNc1ncnc(N2CCOc3ccc(-c4cnc5nc(C)[nH]c5c4)cc3C2)c1C
COc1c(OCc2ccccc2)ccc2c(N3CCOc4ccc(-c5ccc6nc(C)[nH]c6c5)cc4C3)ncnc12
COc1cc2c(N3CCOc4ccc(-c5cnc6nc(N)[nH]c6c5)cc4C3)ncnc2cc1Br
Cc1ccc2c(N3CCOc4ccc(-c5ccc6nc(C)[nH]c6c5)cc4C3)ncnc2c1
COc1c(O)ccc2c(N3CCOc4ccc(-c5ccc6nc(C)[nH]c6c5)cc4C3)ncnc12
Cc1nc2ncc(-c3ccc4c(c3)CN(c3nc(CNC(C)C5CC5)nc5c3CC(C)(C)CC5)CCO4)cc2[nH]1 (stereo unspecified)
Cc1nc2ccc(-c3ccc4c(c3)CN(c3ncnc5c(Cl)cccc35)CCO4)cc2[nH]1
Cc1nc(C)c(CC2CC2)c(N2CCOc3ccc(-c4cnc5nc(C)[nH]c5c4)cc3C2)n1
COCCNCc1nc2c(c(N3CCOc4ccc(-c5ccc6nc(C)[nH]c6c5)cc4C3)n1)CC(C)(C)CC2
CC1(C)CCc2ncnc(N3CCOc4ccc(-c5cnc(N)c(S(=O)(=O)N6C[C@@H]7C[C@H]6CN7)c5)cc4C3)c2C1
CCc1nc(CN(C)C)nc(N2CCOc3ccc(-c4ccc5[nH]c(C)nc5c4)cc3C2)c1C
CCS(=O)(=O)c1cc(-c2ccc3c(c2)CN(c2ncnc4c2CC(C)(C)CC4)CCO3)cnc1N
CC[C@H]1CCc2c(ncnc2N2CCOc3ccc(-c4cnc(N)c(S(=O)(=O)N5CC[C@@H](N)C5)c4)cc3C2)C1
CC1(C)CCc2ncnc(N3CCOc4ccc(-c5cnc(N)c(S(=O)(=O)N6CC(O)(CO)C6)c5)cc4C3)c2C1
COC(=O)Nc1nc2ncc(-c3ccc4c(c3)CN(c3ccnc5cc(OC)c(OC)cc35)CCO4)cc2[nH]1
CC1=Cc2ncnc(N3CCOc4ccc(-c5cnc(N)c(S(=O)(=O)NCC(C)(C)N)c5)cc4C3)c2CC1(C)C
Cc1ncnc(N2CCOc3ccc(-c4cnc5nc[nH]c5c4)cc3C2)c1Cc1ccc(F)cc1
Cc1nc2c(c(N3CCOc4ccc(-c5cnc6nc(C)[nH]c6c5)cc4C3)n1)CC(C)CC2 (stereo unspecified)
CC(C)(O)CCS(=O)(=O)c1cc(-c2ccc3c(c2)CN(c2ncnc4c2CC(C)(C)CC4)CCO3)cnc1N
Cc1nc2ncc(-c3ccc4c(c3)CN(c3ncnc(NC(C)C)c3C)CCO4)cc2[nH]1
Cc1nc2ncc(-c3ccc4c(c3)CN(c3ncnc5c3CC(C)(C)CC5)CCO4)cc2[nH]1
CC1=CC(C)(C)Cc2c1ncnc2N1CCOc2ccc(-c3cnc4nc(C)[nH]c4c3)cc2C1

IC50, 250 to 1000 nM:
Cc1ncnc(N2CCOc3ccc(-c4ccc5nc(N)ncc5c4)cc3C2)c1Cc1ccc(F)cc1
CN(C)Cc1nc2c(c(N3CCOc4ccc(-c5ccc6scnc6c5)cc4C3)n1)CC(C)(C)CC2
COc1ccc2c(N3CCOc4ccc(-c5ccc6c(c5)CC(=O)N6)cc4C3)nc(C)nc2c1
COc1ccc2c(N3CCOc4ccc(-c5ccc(NC(C)=O)cc5)cc4C3)nc(C)nc2c1
Cc1nc2ccc(-c3ccc4c(c3)CN(c3ncnc5c3CCN(Cc3ccccc3)C5)CCO4)cc2[nH]1
Cc1nc2ccc(-c3ccc4c(c3)CN(c3ncnc5cc(Cl)c(Br)cc35)CCO4)cc2[nH]1
